According to PubChem BioAssay (NCI):
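1) Cells in 96-well plates. 2) Compound, 48 h, 5 concentrations. 3) Linear interpolation between surrounding doses. 4) Unreached endpoint = highest concentration. GI50 is the concentration that inhibits growth by half. The concentration for full growth arrest is given as TGI.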

Assays:
Assay in all cases: NCI anticancer screen, dose series, 48 h
LOX IMVI melanoma = system: LOX IMVI melanoma
OVCAR-4 ovarian = system: OVCAR-4 ovarian
NCI/ADR-RES ovarian = system: NCI/ADR-RES ovarian
HOP-92 NSCLC = system: HOP-92 NSCLC
CCRF-CEM leukemia = system: CCRF-CEM leukemia
SNB-19 CNS = system: SNB-19 CNS
MCF7 breast = system: MCF7 breast

| Structure (SMILES) | GI50 (LOX IMVI melanoma) [µM] | TGI (LOX IMVI melanoma) [µM] | GI50 (OVCAR-4 ovarian) [µM] | TGI (OVCAR-4 ovarian) [µM] | GI50 (NCI/ADR-RES ovarian) [µM] | TGI (NCI/ADR-RES ovarian) [µM] | GI50 (HOP-92 NSCLC) [µM] | TGI (HOP-92 NSCLC) [µM] | GI50 (CCRF-CEM leukemia) [µM] | TGI (CCRF-CEM leukemia) [µM] | GI50 (SNB-19 CNS) [µM] | TGI (SNB-19 CNS) [µM] | GI50 (MCF7 breast) [µM] | TGI (MCF7 breast) [µM] |
| --- | --- | --- | --- | --- | --- | --- | --- | --- | --- | --- | --- | --- | --- | --- |
| C/C(=N\O)c1ccc(Nc2cc(-c3ccccc3)nc3c(O)cccc23)cc1 | 6.71 | 24 | 25.4 | 73.2 | 8.54 | 35.5 | 20.1 | 44.6 | 3.51 | 14.8 | – | – | – | – |
| Nc1c(S(=O)(=O)O)cc2c(c1Cl)C(=O)c1ccccc1C2=O | > 100 | > 100 | – | – | > 100 | > 100 | > 100 | > 100 | > 100 | > 100 | > 100 | > 100 | > 100 | > 100 |
| COc1cc(C2C(Cl)C(=O)N2NC(=O)c2ccccc2O)cc(OC)c1OC (centres undefined) | – | > 10 | – | > 10 | – | – | – | > 10 | – | > 10 | – | > 10 | – | 7.36 |
| COc1ccc2c(c1)cn1c3ccc(OC)cc3[nH]c(=O)c21 | < 0.0206 | 1.78 | 0.0382 | 4.92 | < 0.01 | – | – | – | – | – | < 0.0405 | 7.36 | – | – |
| CN(Cc1cccc(Cl)c1)c1ccc(CO)c(Cl)c1 | 14.2 | 27.5 | 2.33 | 16.5 | 14.6 | 44.1 | 3.15 | 19.8 | 22.7 | > 73.6 | 27.3 | > 100 | 1.55 | 15.8 |
| COc1ccc(-n2cc(-c3ccc(F)cc3)[nH]c2=O)cc1OC | > 100 | > 100 | > 100 | > 100 | > 100 | > 100 | 79.1 | > 100 | 18.2 | 34.3 | > 100 | > 100 | > 100 | > 100 |
| Nc1nc(-c2ccccc2Cl)cc(-c2ccc(Cl)cc2Cl)n1 | 4.89 | > 100 | 12.1 | 89.7 | 14.8 | > 100 | 0.527 | 7.62 | 4.17 | > 100 | 16.1 | > 100 | 3.45 | > 100 |
| COc1cc(/C=C/C(=O)c2ccc(SC)cc2)cc(OC)c1OC | – | – | – | – | 4.68 | 26.4 | 32.9 | > 100 | 3.37 | 21.1 | 12.6 | 26.4 | 5.22 | 24.1 |
| Nc1nc(N)c(N=Nc2ccc([As](=O)(O)O)c(O)c2)c(N)n1 | – | > 100 | – | > 100 | – | > 100 | – | > 100 | – | > 19.7 | – | > 100 | – | > 100 |
| Cc1cc(=O)[nH]c2c1C(=O)C(=O)C=C2 | – | – | 25.6 | 63.4 | 18.4 | 40.7 | 77.9 | > 100 | – | – | 42.7 | > 100 | 29 | 60.6 |
| COc1ccc(S(=O)(=O)Nc2c(/C=C\c3cc(OC)c(OC)c(OC)c3)ccc(OC)c2O)cc1OC | 0.294 | > 100 | 0.664 | > 100 | 1.58 | > 100 | 0.0801 | > 100 | 0.125 | > 100 | 0.506 | > 100 | 0.0405 | > 100 |
| C=C(C=O)[C@@H]1CC=C(C=O)CC1 | – | – | 4.19 | > 100 | 3.89 | > 100 | 2.38 | 7.58 | – | – | 17.4 | 71.2 | 2.96 | > 35.5 |
| Cc1cnc2n(c1=O)Cc1ccccc1CO2 | 14.6 | 31.9 | 22 | 64.1 | 22.7 | 71.4 | 19.3 | 44.3 | 2.35 | 10.5 | 21.7 | 61.6 | 10.6 | 28.1 |
| Nc1c2c(c(O)c3c1=C(CO)C=N3)=NCCS2=O (centres undefined) | 1.58 | 4.03 | 0.312 | 1.22 | 2.51 | 8.99 | 2.67 | 5.46 | 1.65 | 13.2 | 1.59 | 3.07 | 0.63 | 2.83 |
| O=C1CCCC1C(O)(C(F)(F)Cl)C(F)(F)Cl (centres undefined) | – | > 10 | – | > 10 | – | > 10 | – | > 10 | – | > 10 | – | > 10 | – | > 10 |
| COc1cc(-c2cc(C(=O)N3CCN(C(=O)c4ccccc4NCc4cccs4)CC3)nc3cc(-c4ccccc4)nn23)cc(OC)c1OC | 6.04 | > 100 | 5.55 | > 100 | 2.6 | 9.29 | 2.41 | 9.22 | – | – | 8.99 | > 100 | 2.56 | > 100 |
| Clc1ccc2c(NCCCNCc3ccc4c(c3)OCO4)ccnc2c1 | 1.91 | 4.41 | 10.8 | 24.8 | 4 | 18.4 | 0.739 | 4.74 | 4.62 | 19.3 | 4.79 | 16.9 | 2.89 | 13 |
| O=C(Nc1ccc(-n2cc(-c3ccncc3)c(-c3ccc(Cl)c(O)c3)n2)cc1)c1ccc(Cl)c(C(F)(F)F)c1 | 0.344 | 1.58 | 3.66 | > 90.4 | 2.77 | > 100 | 1.99 | 5.87 | 1.18 | > 100 | 4.16 | > 100 | 1.92 | 8.6 |
| NCCCCNCCCNC(=O)c1csc(-c2nc(CCN)sc2Cl)n1 | – | – | – | – | – | > 100 | – | 79.5 | – | > 100 | – | > 100 | – | > 100 |
| c1ccc2c(c1)-c1nc3ccccc3cc1C2N1CCOCC1 (centres undefined) | – | > 100 | – | > 100 | – | > 100 | – | – | – | > 100 | – | > 100 | – | > 100 |
